# Where “and” joins values, the source holds several entries; their conditions need not be identical. Equal values may be shown once.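 Test compounds were applied to cells in 96-well plates for 48 hours at 5 doses. Abbreviation: GI50, concentration required for 50% inhibition of growth. TGI denotes the concentration required for complete inhibition of growth.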 Where a SMILES comes first, the peptide text is derived from it. [ ]: non-standard residue; d: D form. The star is where a group is joined. ξ: configuration not given here. X16 = COC1=CC(=O)N(C(=O)C(O*)C(C)C)C1Cc1ccccc1; ξNMe2Val = CC(C)C(C(=O)*)N(C)C; NMeV = CN[CH](C(=O)O)C(C)C
# Tests used:
# Test in all cases: NCI anticancer screen, dose series, 48 h
# A498 renal = system: A498 renal
# HL-60(TB) leukemia = system: HL-60(TB) leukemia
# NCI-H522 lung = system: NCI-H522 lung
# MDA-MB-435 = system: MDA-MB-435
# SK-OV-3 ovarian = system: SK-OV-3 ovarian
# HOP-62 NSCLC = system: HOP-62 NSCLC
# NCI-H226 lung = system: NCI-H226 lung
# CAKI-1 renal = system: CAKI-1 renal
# RPMI-8226 leukemia = system: RPMI-8226 leukemia
# MOLT-4 leukemia = system: MOLT-4 leukemia
# SR leukemia = system: SR leukemia
Structure (SMILES),TGI (A498 renal),TGI (HL-60(TB) leukemia),TGI (NCI-H522 lung),TGI (MDA-MB-435),TGI (SK-OV-3 ovarian),TGI (HOP-62 NSCLC),TGI (NCI-H226 lung),TGI (CAKI-1 renal),TGI (RPMI-8226 leukemia),TGI (MOLT-4 leukemia),TGI (SR leukemia),GI50 (A498 renal),GI50 (MOLT-4 leukemia),GI50 (HL-60(TB) leukemia),GI50 (NCI-H522 lung),GI50 (SK-OV-3 ovarian),GI50 (HOP-62 NSCLC),GI50 (NCI-H226 lung),GI50 (CAKI-1 renal),GI50 (RPMI-8226 leukemia)
Cc1ccc(N=Nc2c(O)c3ccccc3[nH]c2=O)c(S(=O)(=O)N(C)C)c1,> 100 µM,> 100 µM,> 100 µM,> 100 µM,> 100 µM,> 100 µM,> 100 µM,> 100 µM,> 100 µM,–,–,–,–,–,–,–,–,–,–,–
CSc1nc2c(c(N(C)C)n1)C=Nn1c(nc3ccccc31)S2,> 100 µM,–,> 100 µM,> 100 µM,> 100 µM,> 100 µM,> 100 µM,> 100 µM,> 100 µM,> 100 µM,–,–,–,–,–,–,–,–,–,–
Oc1c(Cl)c2nccnc2c2ccccc12,> 100 µM,> 100 µM,> 100 µM,–,> 100 µM,–,> 100 µM,–,> 100 µM,> 100 µM,–,–,–,–,–,–,–,–,–,–
On1c(-c2ccccc2)c(-c2c(-c3ccccc3)n(O)c3ccccc23)c2ccccc21,–,> 100 µM,52.3 µM,–,80.6 µM,–,64.7 µM,–,–,> 100 µM,–,–,–,–,–,–,–,–,–,–
O=S(=O)(O)c1cc(Cl)c(O)c2ncc(Cl)cc12,> 100 µM,–,–,> 100 µM,–,> 100 µM,> 100 µM,> 100 µM,> 100 µM,66.4 µM,> 100 µM,–,–,–,–,–,–,–,–,–
Cc1cc(Br)c(N2C3=C(CC4=C2CCCC4=O)C(=O)CCC3)c(Br)c1,> 100 µM,> 100 µM,–,–,> 100 µM,–,> 100 µM,> 100 µM,> 100 µM,> 100 µM,> 100 µM,–,–,–,–,–,–,–,–,–
c1cnc2c(c1)-n1cccc1C1(CCOCC1)NN2,> 100 µM,> 100 µM,> 100 µM,–,> 100 µM,–,> 100 µM,> 100 µM,> 100 µM,> 100 µM,> 100 µM,–,–,–,–,–,–,–,–,–
O=C1CC(NC(=O)C(F)(F)F)c2c(Br)sc(N3CCC(c4ccccc4)CC3)c21 (configuration not stated),> 100 µM,> 100 µM,> 100 µM,> 100 µM,> 100 µM,–,91.5 µM,43.8 µM,–,> 100 µM,–,–,–,–,–,–,–,–,–,–
C=C1CC2CC[C@@]34C[C@@H]5O[C@@H]6C(O[C@H]7CC[C@H](CC(=O)OC8[C@@H](C)C9OC%10C[C@]%11(C[C@@H]%12O[C@@]%13(C[C@@H](C)[C@@H]%12O%11)C[C@H](C)[C@@H]%11OC%12CC(C(O)CO)OC%12C[C@@H]%11O%13)OC%10CC9O[C@H]8C[C@H]8O[C@@H](CC[C@@H]1O2)C[C@@H](C)C8=C)O[C@@H]7[C@@H]6O3)C5O4 (some centres not stated),0.0167 µM,–,0.000594 µM and < 0.000148 µM,–,–,–,–,> 1.48 µM,> 1.48 µM,0.104 µM,–,< 0.000148 µM,< 0.000148 µM,< 0.000148 µM,< 0.000148 µM,< 0.000148 µM,0.000174 µM,< 0.000148 µM,< 0.000148 µM,< 0.000148 µM
c1ccc(COc2ccc(C[P+](c3ccccc3)(c3ccccc3)c3ccccc3)cc2)cc1,5.51 µM,–,1.61 µM,1.7 µM,3.42 µM,3.37 µM,22.4 µM,20.2 µM,0.201 µM,1.94 µM,> 24.2 µM,–,–,–,–,–,–,–,–,–
COc1ccc(-n2sc3ncc(-c4ccccc4)cc3c2=O)cc1,> 100 µM,> 100 µM,–,> 100 µM,> 100 µM,> 100 µM,> 100 µM,67.3 µM,66.8 µM,–,–,–,–,–,–,–,–,–,–,–
COC(=O)[C@]1(C)CCCn2c(=O)n(-c3ccccc3)c(=O)n21,> 100 µM,–,> 100 µM,> 100 µM,> 100 µM,> 100 µM,> 100 µM,> 100 µM,> 100 µM,> 100 µM,–,–,–,–,–,–,–,–,–,–
O=C(NCCNCCO)N/N=C/c1cccc([N+](=O)[O-])c1,> 100 µM,> 100 µM,> 100 µM,–,> 100 µM,> 100 µM,> 100 µM,> 100 µM,> 100 µM,> 100 µM,–,–,–,–,–,–,–,–,–,–
C[N+]1(C)C2Cc3ccccc3C1Cc1ccccc12,> 100 µM,> 100 µM,> 100 µM,> 100 µM,> 100 µM,> 100 µM,> 100 µM,–,> 100 µM,> 100 µM,–,–,–,–,–,–,–,–,–,–
COc1ccc(C2SCC(=O)N2N=C2NC(=O)CC(=O)N2)cc1 (configuration not stated),> 100 µM,–,> 100 µM,> 100 µM,> 100 µM,> 100 µM,> 100 µM,> 100 µM,> 100 µM,> 100 µM,> 100 µM,–,–,–,–,–,–,–,–,–
C=C(NC(=O)C(=C)NC(=O)c1csc(C2=NC3c4csc(n4)C4NC(=O)c5csc(n5)C(C(C)(O)C(C)O)NC(=O)C5CSC(=N5)/C(=C/C)NC(=O)C(C(C)O)NC(=O)c5csc(n5)C3(CC2)NC(=O)C(C)NC(=O)C(=C)NC(=O)C(=C)NC(=O)C(C(C)C)NC2C=Cc3c(C(C)O)cc(nc3C2O)C(=O)OC4C)n1)C(N)=O (configuration not stated),16.5 µM,–,0.322 µM,> 52.8 µM,> 63.4 µM,> 100 µM,7.24 µM,> 87.2 µM,13.6 µM,–,–,–,–,–,–,–,–,–,–,–
CCOC(=O)c1nc2c3c(ncn2n1)Oc1c(c(-c2ccccc2)nn1-c1ccccc1)C3c1ccc(OC)c(OC)c1 (configuration not stated),–,–,> 100 µM,> 100 µM,> 100 µM,48.5 µM,–,> 100 µM,> 100 µM,> 100 µM,> 100 µM,–,–,–,–,–,–,–,–,–
COc1c(C2(c3ccc(F)cc3)SCCCS2)c(=O)c1=O,–,> 100 µM,–,> 100 µM,> 100 µM,> 100 µM,> 100 µM,> 100 µM,> 100 µM,> 100 µM,–,–,–,–,–,–,–,–,–,–
COC1=CC(=O)N(C(=O)C(OC(=O)C2CCCN2C(=O)C2CCCN2C(=O)C(C(C)C)N(C)C(=O)C(NC(=O)C(C(C)C)N(C)C)C(C)C)C(C)C)C1Cc1ccccc1 (configuration not stated) (ξNMe2Val-V[NMeV]PP-X16; configuration not given here),0.165 µM,0.00123 µM and < 0.0004 µM,0.00182 µM,0.000576 µM,–,> 4 µM,1.54 µM,> 4 µM,> 4 µM,–,–,0.00643 µM,< 0.0004 µM,< 0.0004 µM,–,0.0042 µM,0.00241 µM,0.000406 µM,< 0.0004 µM,< 0.0004 µM
NC1=CN(CCCO)C2=N/C(=C\c3ccco3)C(=O)N12,> 100 µM,> 100 µM,> 100 µM,> 100 µM,> 100 µM,> 100 µM,> 100 µM,> 100 µM,> 100 µM,> 100 µM,–,–,–,–,–,–,–,–,–,–
O=C(CCN1CCCCC1CCO)Nc1ccc2c(c1)C(=O)c1ccc(NC(=O)CCN3CCCCC3CCO)cc1C2=O (configuration not stated),8.45 µM,19 µM,5.32 µM,–,22.6 µM,21.4 µM,22.1 µM,57.5 µM,31.8 µM,39.1 µM,29.3 µM,–,–,–,–,–,–,–,–,–

# From PubChem BioAssay (NCI)
